Measurements as given in patent US5110976A, “Insecticidal composition comprising more than one active ingredient” (priority 1985, dated 1992).

What was measured:
[1] = system: Musca domestica; conditions: bioresmetrine = 100; cited from earlier work
[2] = system: Phaedon cochleariae; conditions: bioresmetrine = 100; cited from earlier work
[3] = system: Musca domestica; assay: Topical LD50 (Table 3); type: in vivo, house fly (Musca domestica), 3-5 days' old females; conditions: topical, dorsal cuticulum; 24 hours
Experimental: (§1) In Table 3 the LD50 values of the Ig and Ii isomers and those of the Ib isomer-pair are disclosed. The data are topically measured.
(§2) The active ingredients are dissolved in 2-ethoxyethanol (cellosolve) and 0.3 μl droplets of the solutions are applied onto the dorsal cuticulum of 3-5 days' old female house flies. 10 animals are used and 2 parallels are carried out for each dose. The tests are carried out for 5 dose levels between activity limits of 0% and 100%. After treatment the flies are placed into glass vials. Mortality is determined after 24 hours. Data are transformed to log10 dosage and probit mortality. LD50 and confidence interval values are calculated by linear regression analysis of the log-probit data. The expected values required for the calculation of synergism are obtained by means of harmonic average. The synergistic factor is the quotient of the expected and measured values.

[4] = system: T. confusum; assay: Contact method, synergism between stereoisomers (Table 2); type: in vivo; conditions: Tribolium confusum, 24 h
Experimental: The stereoisomers are dissolved in a 1:2 mixture of mineral oil and acetone and filter paper discs (Whatman No. 1., diameter 9 cm) are impregnated with the corresponding dosage of the solution of the active ingredient. The acetone is allowed to evaporate and the insects are examined on filter paper discs placed into Petri-dishes. Three parallels are used for each dose and 15 animals are placed in each Petri-dish. Mortality rate is determined after 24 hours. The corrected mortality % data are calculated by means of the Abbot formula.
The test is carried out on T. confusum and the following results are obtained by the contact method for various active ingredient doses.
The test is carried out according to the method described in Example 20.

[5] = system: Musca domestica; assay: Filter paper disc contact test (Table 11); type: in vivo, house fly (Musca domestica); conditions: Musca domestica, 24 h
Experimental: In Table 1 the activity of various stereoisomers of cypermethrin on the house fly (Musca domestica) is shown.
(§3) The active ingredient is dissolved in a 1:2 mixture of oil and acetone; filter paper discs (Whatman No. 1, diameter 9 cm) are impregnated with the solutions of the corresponding stereoisomers and enantiomer-pairs, respectively. The acetone is allowed to evaporate, whereupon the insects are exposed to filter papers discs placed in Petri-dishes. Three parallels are used on each dose and 15 insects are placed into each Petri-dish. The percental mortality is determined after 24 hours. The corrected percent mortality is calculated by means of the Abbot Formula.

[6] = system: T. confusum; assay: Activity as function of time, toxic symptoms (Table 16); type: in vivo, flour beetle (T. confusum), imagos
Experimental: as §3
Activity of cypermethrin stereoisomer-pairs as function of time on flour beetle (T. Confusum).
Flour beetle (T. confusum) imagos are exposed in Petri-dishes according to the method described in Example 43. For each dose 3 parallels are used and 15 animals are applied for each parallel test. In each point of time the insects lying on their backs are counted and the percental results are expressed in Table 16.

[7] = system: T. confusum; assay: Topical LD50 (Table 3); type: in vivo, 1-2 weeks' old imagos; conditions: topical, abdominal side
Experimental: as §1, §2
The active ingredients are dissolved in 2-ethoxyethanol and 0.3 μl droplets of the solutions are applied onto the abdominal side of 1-2 weeks' old imagos. Treatment is carried out with 2 parallels and 20 animals for each dose by using 5 dose levels in the range between activity limits of 0% and 100%. Evaluation and determination of LD50 values and synergistic factors are carried out as described in Example 21.

[8] = system: Tribolium confusum; assay: Contact test on Tribolium confusum (Table 12); type: in vivo; conditions: Tribolium confusum, 24 h
Experimental: as §3
It appears from Table 12 that the increased activity shown in Example 41 is due to the synergistic effect of the trans-isomers to Tribolium confusum.

CC1(C)[C@H](C=C(Cl)Cl)[C@H]1C(=O)O[C@@H](C#N)c1cccc(Oc2ccccc2)c1 [1RtransR]
activity related to bioresmetrine (100) [1]: 81
activity related to bioresmetrine (100) [2]: 110

CC1(C)[C@H](C=C(Cl)Cl)[C@H]1C(=O)O[C@H](C#N)c1cccc(Oc2ccccc2)c1 [Ig]
LD50 measured [3]: 13.4 ng/insect
activity related to bioresmetrine (100) [1]: 1400
activity related to bioresmetrine (100) [2]: 2200
mortality at 110 µg/disc ([4]; 0.11 mg/disc): 80%
mortality at 330 µg/disc ([4]; 0.33 mg/disc): 94%
mortality at 1000 µg/disc ([4]; 1.00 mg/disc): 100%
mortality at 3000 µg/disc ([4]; 3.00 mg/disc): 100%
mortality at 40 µg/disc ([5]; 0.04 mg/disc): 48%
mortality at 110 µg/disc ([5]; 0.11 mg/disc): 68%
mortality at 330 µg/disc ([5]; 0.33 mg/disc): 83%
mortality at 1000 µg/disc ([5]; 1.00 mg/disc): 100%
mortality at 3000 µg/disc ([5]; 3.00 mg/disc): 100%
% of insects showing toxic symptoms ([6]; 30 minutes): 0%
% of insects showing toxic symptoms ([6]; 30 minutes, 0.33 mg/disc): 0%
% of insects showing toxic symptoms ([6]; 30 minutes, 1.00 mg/disc): 15%
% of insects showing toxic symptoms ([6]; 30 minutes, 3.00 mg/disc): 68%
% of insects showing toxic symptoms ([6]; 60 minutes): 18%
% of insects showing toxic symptoms ([6]; 60 minutes, 0.33 mg/disc): 34%
% of insects showing toxic symptoms ([6]; 60 minutes, 1.00 mg/disc): 98%
% of insects showing toxic symptoms ([6]; 60 minutes, 3.00 mg/disc): 100%
% of insects showing toxic symptoms ([6]; 120 minutes): 30%
% of insects showing toxic symptoms ([6]; 120 minutes, 0.33 mg/disc): 70%
% of insects showing toxic symptoms ([6]; 120 minutes, 1.00 mg/disc): 100%
% of insects showing toxic symptoms ([6]; 120 minutes, 3.00 mg/disc): 100%
% of insects showing toxic symptoms ([6]; 180 minutes): 34%
% of insects showing toxic symptoms ([6]; 180 minutes, 0.33 mg/disc): 84%
% of insects showing toxic symptoms ([6]; 180 minutes, 1.00 mg/disc): 100%
% of insects showing toxic symptoms ([6]; 180 minutes, 3.00 mg/disc): 100%
LD50 measured [7]: 73.6 ng/insect
mortality at 110 µg/disc ([8]; 0.11 mg/disc): 70%
mortality at 330 µg/disc ([8]; 0.33 mg/disc): 92%
mortality at 1000 µg/disc ([8]; 1.00 mg/disc): 100%
mortality at 3000 µg/disc ([8]; 3.00 mg/disc): 100%
